In ChEMBL document CHEMBL1130972, “Sugar-substituted 2-azetidinones as cholesterol absorption inhibitors” (1998) one finds Reduction data, which are given here for 7 molecules.

The subject of assay [1] is Cricetinae gen. sp. Nature of the assay: Tested for inhibition of serum cholesterol absorption in cholesterol-fed hamsters at a oral dose of 10 mg/Kg/day. It is filed as functional, hamster.
The subject of assay [2] is Cricetinae gen. sp. Description: Tested for inhibition of liver cholesterol esters absorption in cholesterol-fed hamsters at a oral dose of 10 mg/Kg/day. It is filed as functional, Cricetulus griseus.
Assay [3] relates to Cricetinae gen. sp. Nature of the assay: Tested for inhibition of liver cholesterol esters absorption in cholesterol-fed hamsters at a oral dose of 8 mg/Kg/day. It is filed as functional, Cricetulus griseus.
Assay [4] relates to Cricetinae gen. sp. Description: Tested for inhibition of serum cholesterol absorption in cholesterol-fed hamsters at a oral dose of 8 mg/Kg/day. It is filed as functional, Cricetulus griseus.

Each structure is given as a SMILES string.

Take `COc1ccc(N2C(=O)[C@H](CCCc3ccccc3)[C@H]2c2ccc(O)cc2)cc1`: the Reduction was -25% in the assay with Cricetinae gen. sp. [1] and -70% with Cricetinae gen. sp. [2].
Regarding `COC(=O)[C@H]1O[C@@H](Oc2ccc([C@@H]3[C@@H](CCCc4ccccc4)C(=O)N3c3ccc(OC)cc3)cc2)[C@H](O)[C@@H](O)[C@@H]1O`, the values for the Reduction in the assay on Cricetinae gen. sp. [3] and in the assay with Cricetinae gen. sp. [4] were -62% and -23%, respectively.
On to `COc1ccc(N2C(=O)[C@H](CCCc3ccccc3)[C@H]2c2ccc(O[C@@H]3O[C@H](COCc4ccccc4)[C@@H](OCc4ccccc4)[C@H](OCc4ccccc4)[C@H]3OCc3ccccc3)cc2)cc1`, for which the Reduction in the assay on Cricetinae gen. sp. [1] is recorded as -9%; in the assay on Cricetinae gen. sp. [2], -21%.
For `COc1ccc(N2C(=O)[C@H](CCCc3ccccc3)[C@H]2c2ccc(O[C@@H]3O[C@H](CO)[C@@H](O)[C@H](O)[C@H]3O)cc2)cc1`, in that order: -29% and -86%.
Turning to `COc1ccc(N2C(=O)[C@H](CCCc3ccccc3)[C@H]2c2ccc(O[C@@H]3O[C@H](C(=O)O)[C@@H](O)[C@H](O)[C@H]3O)cc2)cc1`, the figures for the Reduction in the assay on Cricetinae gen. sp. [1] and in the assay on Cricetinae gen. sp. [2] were -10% and -9%, respectively.
Turning to `COc1ccc(N2C(=O)[C@H](CCCc3ccccc3)[C@H]2c2ccc(OC[C@H]3O[C@H](OC)[C@H](O)[C@@H](O)[C@@H]3O)cc2)cc1`, the Reduction with Cricetinae gen. sp. [1] is -10%; in the assay with Cricetinae gen. sp. [2] it was -48%.
Consider `COc1ccc([C@@H]2[C@@H](CCCc3ccccc3)C(=O)N2c2ccc(OC)cc2)cc1` [SCH-48461], for which the Reduction is given as -43% in the assay with Cricetinae gen. sp. [1] and -93% in the assay on Cricetinae gen. sp. [2].
